Converted amounts (≈) assume the structure as drawn.

The record followed here is ChEMBL document CHEMBL3244131, “Synthesis of cephalosporin-4-aldehydes” (1977).

What all share (assay type): functional
One experiment concerns Streptococcus pyogenes. Briefly: Antimicrobial activity against Streptococcus pyogenes ATCC 8668 by threefold dilution agar inclusion method.
A further experiment concerns Staphylococcus aureus. Nature of the experiment: Antimicrobial activity against Staphylococcus aureus ATCC 6538P by threefold dilution agar inclusion method.
Another experiment relates to Proteus vulgaris. Nature of the experiment: Antimicrobial activity against Proteus vulgaris ATCC 9484 by threefold dilution agar inclusion method.
For a further experiment, the system named is Escherichia coli. Nature of the experiment: Antimicrobial activity against Escherichia coli ATCC 25922-1 by threefold dilution agar inclusion method.
In another experiment the test system is Klebsiella pneumoniae. Nature of the experiment: Antimicrobial activity against Klebsiella pneumoniae ATCC 10031-2 by threefold dilution agar inclusion method.

On to `CC(=O)OCC1=C(C=O)N2C(=O)[C@@H](NC(=O)Cc3cccs3)[C@H]2SC1`, for which the minimum inhibitory concentration (MIC) against Streptococcus pyogenes was 30 µg/mL (≈ 78.9 µM); against Staphylococcus aureus, 30 µg/mL (≈ 78.9 µM); in the experiment on Proteus vulgaris, above 100 µg/mL; in the experiment with Escherichia coli, above 100 µg/mL; with Klebsiella pneumoniae, above 100 µg/mL.
With `CC(=O)OCC1=C(C2OCCO2)N2C(=O)[C@@H](NC(=O)Cc3cccs3)[C@H]2SC1`, the MIC against Streptococcus pyogenes, in the experiment on Staphylococcus aureus, against Proteus vulgaris, against Escherichia coli and in the experiment on Klebsiella pneumoniae was above 100 µg/mL throughout.
As for `CC(=O)OCC1=C(/C=N/O)N2C(=O)[C@@H](NC(=O)Cc3cccs3)[C@H]2SC1`, the MIC in the experiment on Streptococcus pyogenes, against Staphylococcus aureus, in the experiment on Proteus vulgaris, in the experiment with Escherichia coli and with Klebsiella pneumoniae was above 100 µg/mL throughout.
On to `CO/N=C/C1=C(COC(C)=O)CS[C@@H]2[C@H](NC(=O)Cc3cccs3)C(=O)N12`, for which the MIC in the experiment on Streptococcus pyogenes, in the experiment on Staphylococcus aureus, in the experiment on Proteus vulgaris, with Escherichia coli and with Klebsiella pneumoniae was above 100 µg/mL throughout.
In the case of `CC(=O)OCC1=C(/C=N/NC(N)=O)N2C(=O)[C@@H](NC(=O)Cc3cccs3)[C@H]2SC1`, the MIC with Streptococcus pyogenes, against Staphylococcus aureus, with Proteus vulgaris, against Escherichia coli and against Klebsiella pneumoniae was above 100 µg/mL in each case.
Take `CC(=O)OCC1=C(/C=N/OCC(=O)O)N2C(=O)[C@@H](NC(=O)Cc3cccs3)[C@H]2SC1`: the MIC in the experiment with Streptococcus pyogenes, against Staphylococcus aureus, with Proteus vulgaris, in the experiment with Escherichia coli and in the experiment with Klebsiella pneumoniae was above 100 µg/mL in each case.
For `CC(=O)OCC1=C(/C=C/C(=O)[O-])N2C(=O)[C@@H](NC(=O)Cc3cccs3)[C@H]2SC1.[Na+]`, the MIC in the experiment on Streptococcus pyogenes, with Staphylococcus aureus, in the experiment on Proteus vulgaris, in the experiment with Escherichia coli and against Klebsiella pneumoniae was above 100 µg/mL each time.
As for `CC(=O)OCC1=C(C(=O)O)N2C(=O)[C@@H](NC(=O)Cc3cccs3)[C@H]2SC1` [CEPHALOTHIN], the MIC in the experiment on Streptococcus pyogenes was below 0.1 µg/mL; in the experiment with Staphylococcus aureus, 0.3 µg/mL (≈ 0.757 µM); against Proteus vulgaris it was above 100 µg/mL; against Escherichia coli, 30 µg/mL (≈ 75.7 µM); in the experiment with Klebsiella pneumoniae, 1 µg/mL (≈ 2.52 µM).

One may read the MIC as the smallest concentration in the dilution series that meets the test's criterion for growth inhibition. Low readings indicate a more susceptible organism, high ones a less susceptible organism.
